From US20070203211A1, “Drug for preventing or treating angiogenic eye diseases” (SANKYO COMPANY, LIMITED, priority 2003, published 2007) come the findings set out here.

The test system of one test is C57BL/6 mice. In words: oxygen-induced retinopathy in mice, retinopathy score by ADPase staining of retinal flat specimens. The test is classed as in vivo. Conditions: score as percentage of solvent control (100%), n = 9 to 16. On the procedure: Seven-day-old C57BL/6 mice were housed for five days with their mother in roughly 75% oxygen. Subsequently, the animals were housed for another five days after returning to ordinary air. While being housed in air, the animals were administered a test compound once a day. Following completion of administration, the animals were sacrificed by dislocation of the cervical vertebra followed by excision of the eyeball. The eyeballs were fixed in neutral formalin. After preparing flat specimens of the retina, vascular endothelium was stained by ADPase staining (Lutty, et al., Arch. Ophthalmol. 1992; 100: 267). After staining, retinopathy was scored in a blind study, and retinopathy was assessed for each of 12 retinal sections obtained by dividing the entire circumference of the retina into 12 equal sections centering about the papilla of the optic nerve. Assessments were made by scoring either the presence of retinopathy (score: 1) or the absence of retinopathy (score: 0), and determining the retinopathy score for each specimen based on the total score of the 12 sections. The score of each test compound was calculated as a percentage based on assigning a value of 100% for the score following administration of solvent. The test compounds consisted of (5-methyl-2-oxo-1,3-dioxolen-4-yl)methyl 4-(1-hydroxy-1-methylethyl)-2-propyl-1-[2′-(1H-tetrazol-5-yl)biphenyl-4-ylmethyl]imidazole-5-carboxylate (hereinafter, indicated as “Compound A”) for the medicament of the present invention, Candesartan cilexetil and Losartan.

The subject of test [1] is New Zealand White rabbits. In words: VEGF pellet-induced corneal neovascularization in rabbits. Conditions: dosage 10 mg/kg once a day for one week; AA = neovascularization density score (0 to 5) x length (mm); solvent control 0.72 ± 0.15; n = 3. It is filed as in vivo. The text has this: Male New Zealand White rabbits were used in this example. The animals were anesthetized by administering suitable amounts of animal […] (registered trade mark) 50 and Celactal (registered trade mark). Moreover, the eyes were topically anesthetized by dropping 0.4% Benoxil (registered trade mark) opthalmic solution. The procedure was basically preformed in accordance with the method of Ziche, et al. (J. Clin. Invest. 1997 99: 2625-2634), and consisted of creating a pocket in the center of the cornea with a razor, and inserting a hydron pellet containing VEGF produced in advance into the pocket. A solution of the test compound was administered once a day for one week. Corneal neovascularization was photographed on the day after final administration of the test compound. Neovascularization was evaluated using the density and length of newly formed vessels as an index. Namely, neovascularization density was scored from 0 to 5 by referring to standard photographs corresponding to each score. The length of neovascularization was calculated by measuring the length (mm) of vessels uniformly extending from the corneal limbus towards the pellet based on a scale bar on the photograph. The value obtained by multiplying the neovascularization density score by the neovascularization length (mm) was used to indicate angiogenic activity (AA).

[2] abbreviates: dosage 1 mg/kg once a day for five days.
Where [3] appears, read: dosage 3 mg/kg once a day for five days.
Where [4] appears, read: dosage 10 mg/kg once a day for five days.
The mark [5] stands for this setting: dosage 30 mg/kg once a day for five days.

Turning to `CCOc1nc2cccc(C(=O)OC(C)OC(=O)OC3CCCCC3)c2n1Cc1ccc(-c2ccccc2-c2nnn[nH]2)cc1` (stereo not shown) [Candesartan cilexetil], the “Retinopathy (%)” value in the test on C57BL/6 mice (setting [2]) was 84 ± 14%; with C57BL/6 mice (setting [3]), 70 ± 12%; in the test on C57BL/6 mice (setting [4]), 56 ± 11%; in the test on C57BL/6 mice (setting [5]), 58 ± 11%.
Consider `CCCc1nc(C(C)(C)O)c(C(=O)OCc2oc(=O)oc2C)n1Cc1ccc(-c2ccccc2-c2nnn[nH]2)cc1` [Compound A, (5-methyl-2-oxo-1,3-dioxolen-4-yl)methyl 4-(1-hydroxy-1-methylethyl)-2-propyl-1-[2′-(1H-tetrazol-5-yl)biphenyl-4-ylmethyl]imidazole-5-carboxylate], for which the “Retinopathy (%)” value is 57 ± 13% with C57BL/6 mice (setting [2]), 40 ± 9% with C57BL/6 mice (setting [3]), 31 ± 7% in the test with C57BL/6 mice (setting [4]) and 32 ± 11% with C57BL/6 mice (setting [5]). Also, in test [1], the “Angiogenic Activity (AA)” value is 0.14 ± 0.11.
Turning to `CCCCc1nc(Cl)c(CO)n1Cc1ccc(-c2ccccc2-c2nn[nH]n2)cc1` [Losartan], the “Retinopathy (%)” value in the test with C57BL/6 mice (setting [3]) turned out to be 90 ± 11%; in the test on C57BL/6 mice (setting [4]), 54 ± 10%; with C57BL/6 mice (setting [5]), 42 ± 9%; with C57BL/6 mice (dosage 100 mg/kg once a day for five days) it was 40 ± 11%.
